≈ marks a conversion by molar mass, not a printed value. Calls of active or inactive are those of the source. The calls are words filed in the database; no cut-off is given here.
Key:
Klebsiella pneumoniae = experiment: Antibacterial activity against Klebsiella pneumonia assessed as inhibition of bacterial growth measured after 24 hrs incubation; format: functional
Escherichia coli [1] = experiment: Antibacterial activity against Escherichia coli ATCC 25922 assessed as inhibition of bacterial growth measured after 24 hrs incubation; format: functional
Escherichia coli [2] = experiment: Antibacterial activity against Escherichia coli assessed as inhibition of bacterial growth measured after 24 hrs incubation; format: functional
Staphylococcus aureus [3] = experiment: Antibacterial activity against Staphylococcus aureus ATCC 25923 assessed as inhibition of bacterial growth measured after 24 hrs incubation; format: functional
Escherichia coli [4] = experiment: Potency index, ratio of norfloxacin MIC to test compound MIC for antibacterial activity against Escherichia coli ATCC 25922 assessed as inhibition of bacterial growth measured after 24 hrs incubation; format: functional
Acinetobacter baumannii = experiment: Antibacterial activity against Acinetobacter baumannii assessed as inhibition of bacterial growth measured after 24 hrs incubation; format: functional
Staphylococcus aureus [5] = experiment: Antibacterial activity against Staphylococcus aureus assessed as inhibition of bacterial growth measured after 24 hrs incubation; format: functional
Enterococcus faecalis = experiment: Antibacterial activity against Enterococcus faecalis assessed as inhibition of bacterial growth measured after 24 hrs incubation; format: functional
Pseudomonas aeruginosa [6] = experiment: Antibacterial activity against Pseudomonas aeruginosa assessed as inhibition of bacterial growth measured after 24 hrs incubation; format: functional
Escherichia coli [7] = experiment: Potency index, ratio of norfloxacin MIC to test compound MIC for antibacterial activity against Escherichia coli assessed as inhibition of bacterial growth measured after 24 hrs incubation; format: functional
Staphylococcus aureus [8] = experiment: Antibacterial activity against Staphylococcus aureus ATCC 29213 assessed as inhibition of bacterial growth measured after 24 hrs incubation; format: functional
Pseudomonas aeruginosa [9] = experiment: Antibacterial activity against Pseudomonas aeruginosa ATCC 27853 assessed as inhibition of bacterial growth measured after 24 hrs incubation; format: functional
Staphylococcus aureus [10] = experiment: Antibacterial activity against methicillin-resistant Staphylococcus aureus N315 assessed as inhibition of bacterial growth measured after 24 hrs incubation; format: functional
[11] = Hemolytic activity in human red blood cells assessed as hemolysis rate at 512 ug/ml relative to control; format: toxicity, cell-based, Erythrocyte; settings: red blood cells (erythrocytes), at 512 µg/mL, read-out: Activity
Staphylococcus aureus [12] = experiment: Induction of lipid peroxidation in methicillin-resistant Staphylococcus aureus N315 assessed as malondialdehyde (MDA) level production at 4 time of MIC; format: functional, organism-based
Escherichia coli [13] = experiment: Induction of ROS production in Escherichia coli assessed as fluorescence intensity by DCFH-DA (dichlorofluorescin diacetate) probe based assay; format: functional, organism-based
Escherichia coli [14] = experiment: Induction of ROS production in Escherichia coli assessed as fluorescence intensity at 2 times of MIC by DCFH-DA (dichlorofluorescin diacetate) probe based assay; format: functional
Cell membrane [15] = experiment: Induction of cell membrane damage in Escherichia coli assessed as increase in density of red fluorescence at 4 times of MIC by Calcein-AM/PI dual staining based fluorescence microscopy; format: cell membranes
Staphylococcus aureus [16] = experiment: Antibacterial activity against methicillin-resistant Staphylococcus aureus N315 assessed as reduction in bacterial burden at 2 to 4 times of MIC measured upto 7 hrs by time-dependent kinetics assay; format: functional, organism-based
Staphylococcus aureus [17] = experiment: Induction of ROS production in methicillin-resistant Staphylococcus aureus N315 assessed as fluorescence intensity at 2 times of MIC by DCFH-DA (dichlorofluorescin diacetate) probe based assay
Staphylococcus aureus [18] = experiment: Reduction in metabolic activity in methicillin-resistant Staphylococcus aureus N315 by Alamar Blue assay; format: functional, organism-based
Escherichia coli [19] = experiment: Reduction in metabolic activity in Escherichia coli by Alamar Blue assay; format: functional, organism-based
Calf thymus DNA [20] = experiment: Binding affinity to calf thymus DNA by acridine orange staining based competitive binding assay; format: nucleic-acid assay; settings: Bos taurus
Escherichia coli [21] = experiment: Antibacterial activity against Escherichia coli assessed as reduction in bacterial burden at 2 to 4 times of MIC measured upto 7 hrs by time-dependent kinetics assay; format: functional, organism-based
Cell membrane [22] = experiment: Induction of cell membrane damage in methicillin-resistant Staphylococcus aureus N315 assessed as increase in density of red fluorescence at 4 times of MIC by Calcein-AM/PI dual staining based fluorescence microscopy; format: cell membranes
Escherichia coli [23] = experiment: Antibacterial activity against Escherichia coli assessed as resistance development measured after 11 generations; format: functional, organism-based
Staphylococcus aureus [24] = experiment: Anti-biofilm effect in methicillin-resistant Staphylococcus aureus N315 assessed as biofilm destruction by measuring eradication rate at MIC; format: functional
[25] = Hemolytic activity in human red blood cells assessed as hemolysis rate at 64 ug/ml relative to control; format: toxicity, cell-based, Erythrocyte; settings: red blood cells (erythrocytes), at 64 µg/mL, read-out: Activity
Escherichia coli [26] = experiment: Induction of lipid peroxidation in Escherichia coli assessed as malondialdehyde (MDA) level production at 4 time of MIC; format: functional, organism-based
Escherichia coli [27] = experiment: Reduction in metabolic activity in Escherichia coli at 6 times of MIC by Alamar Blue assay relative to control; format: functional; set-up: scale not given: the % may be the effect or the level left
Staphylococcus aureus [28] = experiment: Antibacterial activity against methicillin-resistant Staphylococcus aureus N315 assessed as resistance development by measuring compound concentration required to inhibit measured after 18 generations; format: functional
Staphylococcus aureus [29] = experiment: Induction of lipid peroxidation in methicillin-resistant Staphylococcus aureus N315 assessed as malondialdehyde (MDA) level production; format: functional, organism-based
Escherichia coli [30] = experiment: Anti-biofilm effect in Escherichia coli assessed as inhibition of biofilm formation by measuring reduction in exo-polysaccharide content at 6 times of MIC relative to control; format: functional
Escherichia coli [31] = experiment: Antibacterial activity against Escherichia coli assessed as resistance development by measuring compound concentration required to inhibit measured after 18 generations; format: functional
Calf thymus DNA [32] = experiment: Binding affinity to calf thymus DNA assessed as hypochromism by spectroscopic analysis; format: nucleic-acid assay; settings: Bos taurus
Staphylococcus aureus [33] = experiment: Antibacterial activity against methicillin-resistant Staphylococcus aureus N315 assessed as resistance development measured after 10 generations; format: functional, organism-based
Escherichia coli [34] = experiment: Antibacterial activity against Escherichia coli assessed as reduction in bacterial burden at 2 to 4 times of MIC measured within 5 hrs by time-dependent kinetics assay; format: functional, organism-based
Escherichia coli [35] = experiment: Anti-biofilm effect in Escherichia coli assessed as biofilm destruction by measuring eradication rate at MIC; format: functional
Staphylococcus aureus [36] = experiment: Anti-biofilm effect in methicillin-resistant Staphylococcus aureus N315 assessed as inhibition of biofilm formation by measuring reduction in exo-polysaccharide content at 6 times of MIC relative to control; format: functional
Staphylococcus aureus [37] = experiment: Reduction in metabolic activity in methicillin-resistant Staphylococcus aureus N315 at 6 times of MIC by Alamar Blue assay relative to control; format: functional; set-up: scale not given: the % may be the effect or the level left
Staphylococcus aureus [38] = experiment: Anti-biofilm effect in methicillin-resistant Staphylococcus aureus N315 assessed as biofilm destruction rate at 6 times of MIC; format: functional
Cell membrane [39] = experiment: Induction of cytoplasmic membrane integrity loss in methicillin-resistant Staphylococcus aureus N315 assessed as increase in fluorescence intensity at MIC by Propidium iodide method (reference value: 554); format: cell membranes
Escherichia coli [40] = experiment: Anti-biofilm effect in Escherichia coli assessed as biofilm destruction rate at 6 times of MIC; format: functional
Escherichia coli [41] = experiment: Antibacterial activity against Escherichia coli assessed as resistance development measured after 18 generations; format: functional, organism-based
Calf thymus DNA [42] = experiment: Binding affinity to calf thymus DNA assessed as DNA intercalation with drug by […] assay; format: nucleic-acid assay; settings: Bos taurus
Staphylococcus aureus [43] = experiment: Antibacterial activity against methicillin-resistant Staphylococcus aureus N315 assessed as reduction in bacterial burden at 2 to 4 times of MIC measured within 5 hrs by time-dependent kinetics assay; format: functional, organism-based
Staphylococcus aureus [44] = experiment: Antibacterial activity against methicillin-resistant Staphylococcus aureus N315 assessed as resistance development measured after 18 generations; format: functional, organism-based
Escherichia coli [45] = experiment: Induction of lipid peroxidation in Escherichia coli assessed as malondialdehyde (MDA) level production; format: functional, organism-based

Structure (SMILES): CCCCn1cc(C(=O)O)c(=O)c2cc(F)c(N3CCN(C(=O)/C(C#N)=C/c4cn(CC(=O)OCC)c5ccccc45)CC3)cc21
- MIC (Klebsiella pneumoniae): 16 µg/mL (≈ 25.5 µM)
- MIC (Escherichia coli [1]): 0.25 µg/mL (≈ 0.398 µM)
- MIC (Escherichia coli [2]): 0.25 µg/mL (≈ 0.398 µM)
- MIC (Staphylococcus aureus [3]): 4 µg/mL (≈ 6.37 µM)
- Ratio (Escherichia coli [4]): 2
- MIC (Acinetobacter baumannii): 0.5 µg/mL (≈ 0.797 µM)
- MIC (Staphylococcus aureus [5]): 1 µg/mL (≈ 1.59 µM)
- MIC (Enterococcus faecalis): 1 µg/mL (≈ 1.59 µM)
- MIC (Pseudomonas aeruginosa [6]): 4 µg/mL (≈ 6.37 µM)
- Ratio (Escherichia coli [7]): 8
- MIC (Staphylococcus aureus [8]): 1 µg/mL (≈ 1.59 µM)
- MIC (Pseudomonas aeruginosa [9]): 1 µg/mL (≈ 1.59 µM)
- MIC (Staphylococcus aureus [10]): 2 µg/mL (≈ 3.19 µM)

Structure (SMILES): CCCCn1cc(/C=C(\C#N)C(=O)N2CCN(c3cc4c(cc3F)c(=O)c(C(=O)O)cn4CC)CC2)c2ccccc21
- MIC (Klebsiella pneumoniae): 0.5 µg/mL (≈ 0.878 µM)
- MIC (Escherichia coli [1]): 2 µg/mL (≈ 3.51 µM)
- MIC (Escherichia coli [2]): 4 µg/mL (≈ 7.02 µM)
- MIC (Staphylococcus aureus [3]): 4 µg/mL (≈ 7.02 µM)
- MIC (Acinetobacter baumannii): 2 µg/mL (≈ 3.51 µM)
- MIC (Staphylococcus aureus [5]): 2 µg/mL (≈ 3.51 µM)
- MIC (Enterococcus faecalis): 2 µg/mL (≈ 3.51 µM)
- MIC (Pseudomonas aeruginosa [6]): 1 µg/mL (≈ 1.76 µM)
- MIC (Staphylococcus aureus [8]): 1 µg/mL (≈ 1.76 µM)
- MIC (Pseudomonas aeruginosa [9]): 1 µg/mL (≈ 1.76 µM)
- MIC (Staphylococcus aureus [10]): 2 µg/mL (≈ 3.51 µM)

Structure (SMILES): CCn1cc(C(=O)O)c(=O)c2cc(F)c(N3CCN(C(=O)/C(C#N)=C/c4cn(CCO)c5ccccc45)CC3)cc21
- hemolysis at 512 ug/ml [11]: < 1.8%
- Activity (Staphylococcus aureus [12]): Active
- MIC (Klebsiella pneumoniae): 0.25 µg/mL (≈ 0.448 µM)
- Activity (Escherichia coli [13]): Dose-Dependent Effect
- Activity (Escherichia coli [14]): >50%
- Activity (Cell membrane [15]): Active
- MIC (Escherichia coli [1]): 0.5 µg/mL (≈ 0.897 µM)
- MIC (Escherichia coli [2]): 0.25 µg/mL (≈ 0.448 µM)
- MIC (Staphylococcus aureus [3]): 0.25 µg/mL (≈ 0.448 µM)
- MIC (Acinetobacter baumannii): 0.5 µg/mL (≈ 0.897 µM)
- Activity (Staphylococcus aureus [16]): Active
- Activity (Staphylococcus aureus [17]): >50%
- Activity (Staphylococcus aureus [18]): Dose-Dependent Effect
- Activity (Escherichia coli [19]): Dose-Dependent Effect
- MIC (Staphylococcus aureus [5]): 0.25 µg/mL (≈ 0.448 µM)
- MIC (Enterococcus faecalis): 0.25 µg/mL (≈ 0.448 µM)
- Activity (Calf thymus DNA [20]): Active
- Activity (Escherichia coli [21]): Active
- Activity (Cell membrane [22]): Active
- Activity (Escherichia coli [23]): inactive
- MIC (Pseudomonas aeruginosa [6]): 1 µg/mL (≈ 1.79 µM)
- inhibition (INH) (Staphylococcus aureus [24]): 22.1%
- hemolysis at 64 ug/ml [25]: < 1.8%
- Activity (Escherichia coli [26]): Active
- Activity (Escherichia coli [27]): >50%
- MIC (Staphylococcus aureus [28]): 64 µg/mL (≈ 115 µM)
- Activity (Staphylococcus aureus [29]): Dose-Dependent Effect
- inhibition (INH) (Escherichia coli [30]): <50%
- MIC (Staphylococcus aureus [8]): 0.25 µg/mL (≈ 0.448 µM)
- MIC (Pseudomonas aeruginosa [9]): 0.5 µg/mL (≈ 0.897 µM)
- MIC (Escherichia coli [31]): 32 µg/mL (≈ 57.4 µM)
- Activity (Calf thymus DNA [32]): Active
- Activity (Staphylococcus aureus [33]): inactive
- Activity (Escherichia coli [34]): Active
- inhibition (INH) (Escherichia coli [35]): 40.3%
- inhibition (INH) (Staphylococcus aureus [36]): <50%
- Activity (Staphylococcus aureus [37]): >50%
- inhibition (INH) (Staphylococcus aureus [38]): >60%
- Flu intensity (Cell membrane [39]): 1250
- inhibition (INH) (Escherichia coli [40]): >60%
- Activity (Escherichia coli [41]): Active
- Activity (Calf thymus DNA [42]): Active
- Activity (Staphylococcus aureus [43]): Active
- Activity (Staphylococcus aureus [44]): Active
- MIC (Staphylococcus aureus [10]): 0.25 µg/mL (≈ 0.448 µM)
- Activity (Escherichia coli [45]): Dose-Dependent Effect

Source: ChEMBL document CHEMBL5512655, “Discovery of indolylacryloyl-derived oxacins as novel potential broad-spectrum antibacterial candidates” (Eur J Med Chem, 2024)
